US20060263895A1, “Method for monitoring the stereoselectivity and relative rate of organic chemical reactions” (priority 2005, published 2006)

Experiments:
[1] = Double cuvette-ISES (in situ enzymatic screening) of Co(III)-salen mediated HKR of (±)-propylene oxide; details: for % ee of the 1,2-propanediol product, as predicted by double-cuvette ISES (upper number): bilayer of pH 8.6 buffer over 7.2 M epoxide in CHCl3, 0.25 mol % catalyst, 15-35 min, + = (S), − = (R)
Description: Aqueous reporting layers. containing TBADH/NADP+ (cuvette 1) and HLADH/NAD+ (cuvette 2), respectively, are then added. The increase in absorbance at 340 nm can be followed for several such sets in parallel by UV-vis spectrophotometry. The kinetic data are then used to make the double-cuvette ISES predictions.
A general procedure for double cuvette-ISES to estimate both enantioselectivities and relative rates for an array of catalysts being screened in parallel is presented below. The hydrolytic kinetic resolution (HKR) of (±) propylene oxide was chosen as model reaction.
Typically, quartz cuvettes with one cm light paths and with nominal one mL volumes were used. For each catalyst, a two cuvette screen was performed, with cuvette A containing HLADH, as (S)-propanediol-selective reporting enzyme, and cuvette B containing TBADH, as a (R)-propanediol-selective reporting enzyme. For each cuvette, the final volume was 800 μL (300 μL of organic layer; 500 μL of aqueous layer).
Both cuvettes A and B had the following composition: 150 μL (2.15 mmol) of (±)-propylene oxide (7.2 M in organic layer), 150 μL of CHCl3 and 0.25 mol % Co(III)-salen catalyst. The total organic layer volume was maintained as 300 μL in all catalyst screens.
(i) Cuvette A: 0.35 U HLADH (17.6 μL from a stock solution (0.02U/μL)), 7.2 mM β-NAD+(16.5 μL from a 220 mM stock) and 465.8 μL of 50 mM sodium pyrophosphate buffer, pH 8.8. The final pH was 8.6.
(ii) Cuvette B: 0.35 U TBADH (15.8 μL from a stock solution (0.022U/μL)) of, 2.2 mM β-NADP+ (5 μL from a 220 mM stock) and 479.5 μL of 50 mM sodium pyrophosphate buffer, pH 8.8. The final pH was 8.6. The total volume of the aqueous layer was maintained as 500 μL in both cuvettes in all ISES experiments.
C. Step by Step Protocol: A catalyst stock solution (22 μmol of catalyst in 620 μL CHCl3) was made up in a 1.5 ml microcentrifuge tube, and stored on ice, along with a stock of (±)-propylene oxide, in a separate tube. The organic layers were prepared by briefly vortexing 150 μL (5.4 μmol, 0.25 mol %) of the catalyst stock in CHCl3 with 150 μL (2.15 mmol) of (±)-propylene oxide in iced microcentrifuge tubes. These were loaded into 1 mL quartz cuvettes using precooled (refrigerator), disposable 1 mL syringes. The aqueous layers were then layered on top of the organic layers, by syringe, down the walls of the cuvette.

[2] = HKR of (±)-propylene oxide under standard neat 'Jacobsen conditions' (NMR conversion, chiral HPLC ee); details: for NMR conv. (time) / % ee (HPLC): loading 0.25 mol %; for % ee of the 1,2-propanediol product, as observed by chiral HPLC (lower number): neat propylene oxide, 0.55 equiv. H2O, 0.25 mol % catalyst, 3 h reaction time
Description: Salens in the fully synthetic, 42 member focused library that led to catalysts with appreciable activity, as indicated by double cuvette-ISES, were also evaluated ‘outside of the cuvette,’ under conditions more typically employed in HKR reactions. Specifically, these Co(III)-salen catalysts were evaluated in the HKR of (±)-propylene oxide, under neat conditions, similar to those described by Jacobsen and coworkers. Reactions were arbitrarily stopped after 3 hours, to obtain the enantiopurity of the 1,2-propanediol product at relatively early reaction times, for comparison with ISES predictions.
A typical procedure follows: To the Co(III)-salen catalyst derived from 7e (5.4 mg, 5.4 μmol, 0.25 mol %) and (±)-propylene oxide (125 mg, 2.15 mmol) at 0° C., was added water (21 μL, 1.18 mmol, 0.55 equiv.). The reaction mixture was securely capped, and allowed to warm to room temperature and stirred, most commonly for a total of 3 hours. Percent conversion at 3 hours was evaluated by 1H NMR of an aliquot (cooled to 0° C. for the transfer), in CDCl3. In most of these cases, the conversion was low enough after 3 hours, that the unreacted epoxide (bp 32° C.) was of relatively low ee, and was therefore removed by evaporation under aspirator vacuum. When the conversion was less than 5% by NMR after 3 hours, reactions were continued for longer times.
Upon termination of the reaction, the diol product was isolated by Kugelrohr distillation (˜120° C.-oven temp; 0.1 torr). To determine ee, the isolated diol was derivatized using p-bromobenzoyl imidazole (2.2 equiv.) in THF in the presence of NaH (4 equiv.) at room temperature for 5 min. The bis(p-bromobenzoate) esters obtained following sequential washes with 1 N HCl and saturated sodium bicarbonate, were of sufficient purity to be used directly for chiral HPLC analysis (Chiralcel OD, 99% […]). [drawing 23] [drawing 24] [drawing 25] [drawing 26] [drawing 27]

[3] = reaction stopped at the time given (mostly 3 h), + = (S), − = (R)

Oc1ccc2ccccc2c1C=NC[C@@H](N=Cc1c(O)ccc2ccccc12)c1ccccc1 [Salen 2c, N,N′-Bis(2′-hydroxy-1′-naphthylidene)-(1S)-phenyl-1,2-ethylenediamine]
ISES signal ([1]; over 35 min): § (These catalysts gave ISES signals <20 mAbs min−1 over 35 min.)

Oc1c(C=NC[C@@H](N=Cc2ccc3ccccc3c2O)c2ccccc2)ccc2ccccc12 [Salen 2d, N,N′-Bis(1′-hydroxy-2′-naphthylidene)-(1S)-phenyl-1,2-ethylenediamine]
NMR conv. (time) ([2]; 22 h): 19 (22 h) % | % ee (HPLC) [2, 3]: −54 (R) % ee | % ee of the 1,2-propanediol product, as observed by chiral HPLC (lower number) ([2]; + = (S), − = (R)): −54 % ee | % ee of the 1,2-propanediol product, as predicted by double-cuvette ISES (upper number) [1]: −15 % ee

Oc1c(I)cc(I)cc1C=NC[C@@H](N=Cc1cc(I)cc(I)c1O)c1ccccc1 [Salen 2e, N,N′-Bis(3′,5′-diiodosalicylidene)-(1S)-phenyl-1,2-ethylenediamine]
NMR conv. (time) ([2]; 3 h): 26 (3 h) % | % ee (HPLC) [2, 3]: −41 (R) % ee | % ee of the 1,2-propanediol product, as observed by chiral HPLC (lower number) ([2]; + = (S), − = (R)): −41 % ee | % ee of the 1,2-propanediol product, as predicted by double-cuvette ISES (upper number) [1]: +4 % ee

Oc1cc(OCc2ccccc2)ccc1C=NC[C@@H](N=Cc1ccc(OCc2ccccc2)cc1O)c1ccccc1 [Salen 2f, N,N′-Bis(4′-benzyloxysalicylidene)-(1S)-phenyl-1,2-ethylenediamine]
ISES signal ([1]; over 35 min): § (These catalysts gave ISES signals <20 mAbs min−1 over 35 min.)

CC1(C)CCN2CCC(C)(C)c3c(O)c(C=NC[C@@H](N=Cc4cc5c6c(c4O)C(C)(C)CCN6CCC5(C)C)c4ccccc4)cc1c32 [Salen 2g, N,N′-Bis(8′-hydroxy-1′,1′,7′,7′-tetramethyljulolidinyl-9′-methylidene)-(1S)-phenyl-1,2-ethylenediamine]
% ee (HPLC) ([2]; @3 h): −71@3 h, % ee | % ee (HPLC) ([2]; @20 h): −65@20 h (R) % ee | % ee of the 1,2-propanediol product, as observed by chiral HPLC (lower number) ([2]; + = (S), − = (R)): −71 % ee | % ee of the 1,2-propanediol product, as predicted by double-cuvette ISES (upper number) [1]: −41 % ee | ISES rate in the HLADH cuvette ([1]; over 35 min): 14.9 mAbs min−1

CC(C)(C)c1cc(C=NC[C@H](Cc2ccccc2)N=Cc2cc(C(C)(C)C)cc(C(C)(C)C)c2O)c(O)c(C(C)(C)C)c1 [Salen 3a, N,N′-Bis(3′,5′-di-tert-butylsalicylidene)-(1S)-benzyl-1,2-ethylenediamine]
NMR conv. (time) ([2]; 3 h): 46 (3 h) % | % ee (HPLC) [2, 3]: +55 (S) % ee | % ee of the 1,2-propanediol product, as observed by chiral HPLC (lower number) ([2]; + = (S), − = (R)): +55 % ee | % ee of the 1,2-propanediol product, as predicted by double-cuvette ISES (upper number) [1]: +48 % ee

Oc1ccc2ccccc2c1C=NC[C@H](Cc1ccccc1)N=Cc1c(O)ccc2ccccc12 [Salen 3c, N,N′-Bis(2′-hydroxy-1′-naphthylidene)-(1S)-benzyl-1,2-ethylenediamine]
NMR conv. (time) ([2]; time not given): none obs | ISES signal ([1]; over 35 min): § (These catalysts gave ISES signals <20 mAbs min−1 over 35 min.)

Oc1c(I)cc(I)cc1C=NC[C@H](Cc1ccccc1)N=Cc1cc(I)cc(I)c1O [Salen 3e, N,N′-Bis(3′,5′-diiodosalicylidene)-(1S)-benzyl-1,2-ethylenediamine]
ISES signal ([1]; over 35 min): § (These catalysts gave ISES signals <20 mAbs min−1 over 35 min.)

Oc1cc(OCc2ccccc2)ccc1C=NC[C@H](Cc1ccccc1)N=Cc1ccc(OCc2ccccc2)cc1O [Salen 3f, N,N′-Bis(4′-benzyloxysalicylidene)-(1S)-benzyl-1,2-ethylenediamine]
ISES signal ([1]; over 35 min): § (These catalysts gave ISES signals <20 mAbs min−1 over 35 min.)

Oc1ccc2ccccc2c1C=NC[C@H](Cc1cccc2ccccc12)N=Cc1c(O)ccc2ccccc12 [Salen 4c, N,N′-Bis(2′-hydroxy-1′-naphthylidene)-(1S)-(α-naphthylmethyl)-1,2-ethylenediamine]
ISES signal ([1]; over 35 min): § (These catalysts gave ISES signals <20 mAbs min−1 over 35 min.)

CC1(C)CCN2CCC(C)(C)c3c(O)c(C=NC[C@H](Cc4cccc5ccccc45)N=Cc4cc5c6c(c4O)C(C)(C)CCN6CCC5(C)C)cc1c32 [Salen 4g, N,N′-Bis(8′-hydroxy-1′,1′,7′,7′-tetramethyljulolidinyl-9′-methylidene)-(1S)-α-naphthylmethyl-1,2-ethylenediamine]
ISES signal ([1]; over 35 min): § (These catalysts gave ISES signals <20 mAbs min−1 over 35 min.)

Oc1ccc2ccccc2c1C=NC[C@H](Cc1ccc2ccccc2c1)N=Cc1c(O)ccc2ccccc12 [Salen 5c]
ISES signal ([1]; over 35 min): § (These catalysts gave ISES signals <20 mAbs min−1 over 35 min.)

Oc1cc(OCc2ccccc2)ccc1C=NC[C@H](Cc1ccc2ccccc2c1)N=Cc1ccc(OCc2ccccc2)cc1O [Salen 5f, N,N′-Bis(4′-benzyloxysalicylidene)-(1S)-(β-naphthylmethyl)-1,2-ethylenediamine]
ISES signal ([1]; over 35 min): § (These catalysts gave ISES signals <20 mAbs min−1 over 35 min.)

CC1(C)CCN2CCC(C)(C)c3c(O)c(C=NC[C@H](Cc4ccc5ccccc5c4)N=Cc4cc5c6c(c4O)C(C)(C)CCN6CCC5(C)C)cc1c32 [Salen 5g, N,N′-Bis(8′-hydroxy-1′,1′,7′,7′-tetramethyljulolidinyl-9′-methylidene)-(1S)-(β-naphthylmethyl)-1,2-ethylenediamine]
ISES signal ([1]; over 35 min): § (These catalysts gave ISES signals <20 mAbs min−1 over 35 min.)

CO[C@H]1[C@@H]2OC(C)(C)O[C@@H]2COC1(CN=Cc1c(O)ccc2ccccc12)N=Cc1c(O)ccc2ccccc12 (stereo partly shown) [Salen 6c, N,N′-Bis(2′-hydroxy-1′-naphthylidene)-3-O-methyl-4,5-O-isopropylidene-1,2-dideoxy-Dfructopyranosyl-1,2-diamine]
ISES signal ([1]; over 35 min): § (These catalysts gave ISES signals <20 mAbs min−1 over 35 min.)

COC1C2OC(C)(C)OC2COC1(CN=Cc1ccc2ccccc2c1O)N=Cc1ccc2ccccc2c1O (stereo not drawn) [Salen 7d, N,N′-Bis(1′-hydroxy-2′-naphthylidene)-3-O-methyl-4,5-O-isopropylidene-1,2-dideoxy-β-Dfructopyranosyl-1,2-diamine]
ISES signal ([1]; over 35 min): § (These catalysts gave ISES signals <20 mAbs min−1 over 35 min.)

COC1C2OC(C)(C)OC2COC1(CN=Cc1ccc(OCc2ccccc2)cc1O)N=Cc1ccc(OCc2ccccc2)cc1O (stereo not drawn) [Salen 7f, N,N′-Bis(4′-benzyloxysalicylidene)-3-O-methyl-4,5-O-isopropylidene-1,2-dideoxy-β-Dfructopyranosyl-1,2-diamine]
ISES signal ([1]; over 35 min): § (These catalysts gave ISES signals <20 mAbs min−1 over 35 min.)

N,N′-Bis(2′-hydroxy-1′-naphthylidene)-[1R-(1α,2α,5α)]-2-amino-7,7-dimethyl-2-bicyclo[3.3.1]heptane-ethanamine [Salen 1c]
ISES signal ([1]; over 35 min): § (These catalysts gave ISES signals <20 mAbs min−1 over 35 min.)

N,N′-Bis(4′-benzyloxysalicylidene)-[1R-(1α,2α,5α)]-2-amino-7,7-dimethyl-2-bicyclo[3.3.1]heptane-ethanamine [Salen 1f]
ISES signal ([1]; over 35 min): § (These catalysts gave ISES signals <20 mAbs min−1 over 35 min.)

N,N′-Bis(8′-hydroxy-1′,1′,7′,7′-tetramethyljulolidine-9′-methylidene)-[1R-(1α,2α,5α)]-2-amino-7,7-dimethyl-2-bicyclo[3.3.1]heptane-ethanamine [Salen 1g]
ISES signal ([1]; over 35 min): § (These catalysts gave ISES signals <20 mAbs min−1 over 35 min.)
